ChEMBL document CHEMBL5608181, “Discovery of indazole inhibitors for heat shock protein 90 as anti-cancer agents” (Eur J Med Chem, 2024)
The source made the active and inactive calls. The rule behind the calls is not given here.

Tests used:
BT-474 [1] = assay: Antiproliferative activity against human BT-474 cells assessed as inhibition of cell viability at 10 uM measured after 72 hrs by CellTiter 96 Aqueous One Solution Cell Proliferation Assay relative to control; assay type: functional
BT-474 [2] = assay: Antiproliferative activity against human BT-474 cells assessed as inhibition of cell viability at 10 uM measured after 72 hrs by CellTiter 96 Aqueous One Solution Cell Proliferation Assay; assay type: functional, cell-based
JIMT-1 = assay: Antiproliferative activity against human JIMT-1 cells assessed as inhibition of cell viability at 10 uM measured after 72 hrs by CellTiter 96 Aqueous One Solution Cell Proliferation Assay; assay type: functional, cell-based
HEK293 = assay: Cytotoxicity against HEK293 cells assessed as reduction in cell viability at 10 uM measured after 72 hrs by CellTiter 96 Aqueous One Solution Cell Proliferation Assay; assay type: toxicity, cell-based; conditions: human, hek293, 72 h
Homo sapiens = species: Homo sapiens; assay: Inhibition of N-terminal HSP90 (unknown origin) at 10 uM by AlphaLISA assay

Row | Structure (SMILES) | inhibition at 10 µM (BT-474 [1]) | Activity (BT-474 [2]) | Activity (JIMT-1) | Activity (HEK293) | inhibition (Homo sapiens)
1 | COc1c(C(=O)Nc2ccc3c(C)nn(CCN4CCOCC4)c3c2)ccc2c1C=CC(C)(C)O2 | > 50% | – | – | – | –
2 | COCCn1cc(NC(=O)c2ccc3c(c2OC)C=CC(C)(C)O3)c2cncnc21 | – | Active | Active | Toxic | –
3 | COCCCn1nc(NC(=O)c2ccc3c(c2OC)C=CC(C)(C)O3)c2ccccc21 | > 50% | – | – | – | –
4 | CO[C@@H]1[C@@H](OC(N)=O)[C@@H](O)[C@H](Oc2ccc3c(O)c(NC(=O)c4ccc(O)c(CC=C(C)C)c4)c(=O)oc3c2C)OC1(C)C | – | – | – | – | inactive
5 | COCCn1cc(NC(=O)c2ccc3c(c2OC)C=CC(C)(C)O3)c2ccccc21 | – | Active | Active | Toxic | –
6 | CC(C)c1cc(C(=O)N2Cc3ccc(CN4CCN(C)CC4)cc3C2)c(O)cc1O | – | – | – | – | Active
